According to patent publication EP4813463A2, “TYK2 INHIBITORS AND COMPOSITIONS AND METHODS THEREOF” (Lynk Pharmaceuticals Co. Ltd., priority 2023, dated 2024):

Tests used:
[1] = tested on: Ba/F3-FL-TYK2-P760L cells; assay: Anti-proliferative assay in engineered Ba/F3 cells (Cell-Titer Glo, 72 h); format: cell-based; details: Mus musculus, BaF3, 72 h, 72 h compound treatment, concentration that causes 50% growth inhibition, read-out: Baf3-FL-T2P760L
Outline: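 IC50 from luminescent ATP viability after 72 h compound exposure (37 °C, 5% CO2), % inhibition normalised to DMSO-treated cells minus medium blank. IL-3-free Ba/F3-FL-TYK2-P760L (Tel-JAK fusion) cells in 10% FBS RPMI-1640 received 9 three-fold doses, top 20 µM, 0.1% DMSO.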

TYK2-JH2 domain = biological target: T1, TYK2-JH2 domain (Homo sapiens, UniProt P29597); assay: Binding activity test for JH2 domain of TYK2 (Tb-antibody/tracer FRET); details: for IC50: JH2 domain enzyme, 60 min at 25°C, then 4°C overnight, read-out: TYK2 JH2 Binding IC50; for JAK1/TYK2 selectivity: ratio of JAK1 JH2 to TYK2 JH2 binding IC50
T1 construct: JAK1-JH2 domain or TYK2-JH2 domain enzyme in assay buffer
Outline: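 IC50 values (nM) come from TR-FRET readings taken after a 25°C incubation followed by overnight at 4°C. Each well held JH2 domain protein, Tb-antibody, tracer and test compound titrated in 11 threefold steps, with DMSO high and low controls.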

JAK1-JH2 domain = biological target: T2, JAK1-JH2 domain (Homo sapiens, UniProt P23458); assay: Binding activity test for JH2 domain of JAK1 (Tb-antibody/tracer FRET); details: JH2 domain enzyme; 60 min at 25°C, then 4°C overnight; read-out: JAK1 JH2 Binding IC50
T2 construct: JAK1-JH2 domain or TYK2-JH2 domain enzyme in assay buffer
Procedure: Binding Activity test for JH2 domain of JAK1 and TYK2 […] Add 8μL/well in echo source plate, echo will add 75nL/well with 3-fold serial dilution for 11 points in assay plate. 75nL DMSO for high control and low control. […] For low control, add 5μL/well assay buffer. And then spin down at 1000rpm and centrifuge for 30 seconds. After enzyme system prepared, add 5μL of Tb-antibody solution into each well of assay plate. Spin down at 1000 rpm and centrifuge for 30sec. After Tb-antibody added, also add 5μL of tracer into the assay plate. Spin down at 1000rpm and centrifuge for 30sec. Incubate for […] at 25°C firstly and then continue to incubate the plate at 4°C overnight. Read by envision in FRET mode. The Luminescence value was recorded by a multi-label reader Envision (PerkinElmer). […] Table 2. IC50 on JH2 domain activity (nM)

T2 sequence (P23458 583-855 limits assumed): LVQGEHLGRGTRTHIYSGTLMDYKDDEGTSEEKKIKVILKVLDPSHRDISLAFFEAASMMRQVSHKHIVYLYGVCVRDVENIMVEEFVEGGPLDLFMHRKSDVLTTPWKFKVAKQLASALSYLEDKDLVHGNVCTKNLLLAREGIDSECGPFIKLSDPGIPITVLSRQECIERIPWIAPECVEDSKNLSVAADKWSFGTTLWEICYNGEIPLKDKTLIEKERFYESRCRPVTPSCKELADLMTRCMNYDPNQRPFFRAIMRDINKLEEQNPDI
T1 sequence (P29597 589-875 limits assumed): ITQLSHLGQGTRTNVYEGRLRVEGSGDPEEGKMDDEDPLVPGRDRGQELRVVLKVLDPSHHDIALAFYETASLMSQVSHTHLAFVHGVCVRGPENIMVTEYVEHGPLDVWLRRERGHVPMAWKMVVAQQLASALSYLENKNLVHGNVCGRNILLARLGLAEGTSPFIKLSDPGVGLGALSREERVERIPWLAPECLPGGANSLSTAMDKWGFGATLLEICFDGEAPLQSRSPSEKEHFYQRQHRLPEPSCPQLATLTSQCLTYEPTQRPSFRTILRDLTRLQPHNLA

Row | SMILES | IC50 [1] [nM] | IC50 (TYK2-JH2 domain) [nM] | JAK1/TYK2 selectivity (TYK2-JH2 domain) | IC50 (JAK1-JH2 domain) [nM]
1 | [2H]C([2H])([2H])NC(=O)c1cnc(NC(=O)C2CC2)cc1Nc1cnn2cccc(OC)c12 [Example 44, 6-(Cyclopropanecarboxamido)-4-((4-methoxypyrazolo[1,5-a]pyridin-3-yl)amino)-N-(methyl-d3)nicotinamide] | 356 | 2.8 | 21.5 | 60.2
2 | COC(=O)c1cnc(NC(=O)C2CC2)cc1Nc1nn(C)c2ccc(C(OC)C(F)(F)F)c(OC)c12 (centres unmarked) [Example 45, Methyl 6-(cyclopropanecarboxamido)-4-((4-methoxy-1-methyl-5-(2,2,2-trifluoro-1-methoxyethyl)-1H-indazol-3-yl)amino)nicotinate] | 8.61 | 0.209 | 307.51 | 64.3
3 | COC(=O)c1cnc(NC(=O)C2CC2)cc1Nc1nn(C)c2ccc([C@@H](OC)C(F)(F)F)c(OC)c12 [Example 45A, Methyl (R)-6-(cyclopropanecarboxamido)-4-((4-methoxy-1-methyl-5-(2,2,2-trifluoro-1-methoxyethyl)-1H-indazol-3-yl)amino)nicotinate] | 110 | 0.826 | >361.38 | > 298
4 | [2H]C([2H])([2H])NC(=O)c1cnc(NC(=O)C2CC2)cc1Nc1nn(C)c2ccc(C(OC)C(F)(F)F)c(OC)c12 (centres unmarked) [Example 46, 6-(Cyclopropanecarboxamido)-4-((4-methoxy-1-methyl-5-(2,2,2-trifluoro-1-methoxyethyl)-1H-indazol-3-yl)amino)-N-(methyl-d3)nicotinamide] | 0.618 | 0.113 | 60.31 | 6.81
5 | [2H]C([2H])([2H])O[C@@H](c1ccn2ncc(Nc3cc(NC(=O)C4CC4)ncc3C(=O)OC)c2c1OC)C(F)(F)F [Example 47, Methyl (S)-6-(cyclopropanecarboxamido)-4-((4-methoxy-5-(2,2,2-trifluoro-1-(methoxy-d3)ethyl)pyrazolo[1,5-a]pyridin-3-yl)amino)nicotinate] | 70.6 | 0.221 | 210.20 | 46.5
6 | COC(=O)c1cnc(NC(=O)C2CC2)cc1Nc1nn(C)c2ccc([C@@H](O)C(F)(F)F)c(OC)c12 [Example 48B, Methyl (R)-6-(cyclopropanecarboxamido)-4-((4-methoxy-1-methyl-5-(2,2,2-trifluoro-1-hydroxyethyl)-1H-indazol-3-yl)amino)nicotinate] | 162 | 1.68 | 51.13 | 85.9
7 | [2H]C([2H])([2H])O[C@H](c1ccc2c(c(Nc3cc(NC(=O)C4CC4)ncc3C(=O)OC)nn2C)c1OC)C(F)(F)F [Example 50A, Methyl (R)-6-(cyclopropanecarboxamido)-4-((4-methoxy-1-methyl-5-(2,2,2-trifluoro-1-(methoxy-d3)ethyl)-1H-indazol-3-yl)amino)nicotinate] | 131 | 1.04 | >287.30 | > 298
8 | [2H]C([2H])([2H])NC(=O)c1nnc(NC(=O)C2CC2)cc1Nc1nn(C)c2ccc([C@@H](OC)C(F)(F)F)c(OC)c12 [Example 51A, (R)-6-(cyclopropanecarboxamido)-4-((4-methoxy-1-methyl-5-(2,2,2-trifluoro-1-methoxyethyl)-1H-indazol-3-yl)amino)-N-(methyl-d3)pyridazine-3-carboxamide] | 12.3 | 0.154 | 40.84 | 6.29
9 | [2H]C([2H])([2H])n1nc(Nc2cc(NC(=O)C3CC3)ncc2C(=O)OC)c2c(OC)c([C@H](OC)C(F)(F)F)ccc21 [Example 52A, Methyl (S)-6-(cyclopropanecarboxamido)-4-((4-methoxy-1-(methyl-d3)-5-(2,2,2-trifluoro-1-methoxyethyl)-1H-indazol-3-yl)amino)nicotinate] | 3.56 | 0.082 | 501.71 | 41.1
10 | [2H]C([2H])([2H])n1nc(Nc2cc(NC(=O)C3CC3)ncc2C(=O)OC)c2c(OC)c([C@@H](OC)C(F)(F)F)ccc21 [Example 52B, Methyl (R)-6-(cyclopropanecarboxamido)-4-((4-methoxy-1-(methyl-d3)-5-(2,2,2-trifluoro-1-methoxyethyl)-1H-indazol-3-yl)amino)nicotinate] | 119 | 0.616 | >484.60 | > 298
11 | [2H]C([2H])([2H])NC(=O)c1cnc(NC(=O)C2CC2)cc1Nc1nn(C)c2ccc([C@@H](OC([2H])([2H])[2H])C(F)(F)F)c(OC)c12 [Example 55B, (R)-6-(cyclopropanecarboxamido)-4-((4-methoxy-1-methyl-5-(2,2,2-trifluoro-1-(methoxy-d3)ethyl)-1H-indazol-3-yl)amino)-N-(methyl-d3)nicotinamide] | 16.2 | 0.08 | 153.54 | 12.3
12 | COC(=O)c1cnc(NC(=O)C2CC2)nc1Nc1cccc(-c2ncn(C)n2)c1OC [Example 56, Methyl 2-(cyclopropanecarboxamido)-4-((2-methoxy-3-(1-methyl-1H-1,2,4-triazol-3-yl)phenyl)amino)pyrimidine-5-carboxylate] | 148 | 0.967 | 54.42 | 52.6
13 | CCOC(=O)c1cnc(NC(=O)C2CC2)nc1Nc1cccc(-c2ncn(C)n2)c1OC [Example 57, Ethyl 2-(cyclopropanecarboxamido)-4-((2-methoxy-3-(1-methyl-1H-1,2,4-triazol-3-yl)phenyl)amino)pyrimidine-5-carboxylate] | 719 | 7.33 | >40.75 | > 298
14 | COC(=O)c1cnc(NC(=O)C2CC2)cc1Nc1cccc(-c2ncn(C)n2)c1OC [Example 58, Methyl 6-(cyclopropanecarboxamido)-4-((2-methoxy-3-(1-methyl-1H-1,2,4-triazol-3-yl)phenyl)amino)nicotinate] | 32.4 | 0.304 | 39.30 | 11.9
15 | [2H]C([2H])([2H])OC(=O)c1cnc(NC(=O)C2CC2)cc1Nc1ncn2ncc(CC)c2c1OC [Example 59, Methyl-d3 6-(cyclopropanecarboxamido)-4-((3-ethyl-4-methoxypyrazolo[1,5-c]pyrimidin-5-yl)amino)nicotinate] | 208 | 0.834 | 52.94 | 44.1
16 | COC(=O)c1cnc(NC(=O)C2CC2)cc1Nc1cccc(-c2ccn(C)n2)c1OC [Example 60, Methyl 6-(cyclopropanecarboxamido)-4-((2-methoxy-3-(1-methyl-1H-pyrazol-3-yl)phenyl)amino)nicotinate] | 94.4 | 0.546 | 32.87 | 17.9
17 | COC(=O)c1cnc(NC(=O)C2CC2)cc1Nc1nccc(-c2cnn(C)n2)c1OC [Example 62, Methyl 6-(cyclopropanecarboxamido)-4-((3-methoxy-4-(2-methyl-2H-1,2,3-triazol-4-yl)pyridin-2-yl)amino)nicotinate] | > 1000 | 0.98 | 156.97 | 154
18 | [2H]C([2H])([2H])CC(=O)c1cnc(NC(=O)C2CC2)cc1Nc1nc2ccc(N3CC(OC)C3)cn2n1 [Example 64, N-[4-[[6-(3-methoxyazetidin-1-yl)-[1,2,4]triazolo[1,5-a]pyridin-2-yl]amino]-5-(3,3,3-trideuteriopropanoyl)-2-pyridyl]cyclopropanecarboxamide] | 13 | 0.141 | 246 | 34.7
19 | COc1c([C@H](OC)C(F)(F)F)ccc2c1c(Nc1cc(NC(=O)C3CC3)ncc1C(=O)O)nn2C [Example 77, (S)-6-(Cyclopropanecarboxamido)-4-((4-methoxy-1-methyl-5-(2,2,2-trifluoro-1-methoxyethyl)-1H-indazol-3-yl)amino)nicotinic acid] | > 1000 | 0.08 | 2307.96 | 185
20 | [2H]C([2H])([2H])OC(=O)c1cnc(NC(=O)C2CC2)cc1Nc1cnn2ccc([C@H](OC)C(F)(F)F)c(OC)c12 [Example 79, Methyl-d3 (S)-6-(cyclopropanecarboxamido)-4-((4-methoxy-5-(2,2,2-trifluoro-1-methoxyethyl)pyrazolo[1,5-a]pyridin-3-yl)amino)nicotinate] | 109 | 0.28 | 150.32 | 42.7
